Literature values as cited in patent publication US5869538A, “Method for enhancing transport of gases to tissues” (priority 1996, dated 1999).

Conditions: for Diffusivities / Solubilities: Table 2, simulation parameter

N#N [N2, nitrogen]
Diffusivities: 1.32 × 10^-3 cm^2 /min

O=O [O2, oxygen]
Diffusivities: 1.24 × 10^-3 cm^2 /min | Solubilities: 0.0227 mlml^-1 100 kPa^-1

O=C=O [CO2, carbon dioxide]
Diffusivities: 1.05 × 10^-3 cm^2 /min | Solubilities: 2.35 mlml^-1 100 kPa^-1

[N-]=[N+]=O [N2O, reference compound]
N2O solubility: 0.45 ml N2 O /ml blood/atm
